The subject of data set [1] is SCG neurons. The data set can be described thus: In vitro protection of SCG neurons from vincristine killing. Format: cell-based, Sprague Dawley rats. The following applies: vincristine 100 ng/mL. An excerpt:
Similarly, vincristine and vinblastine are commonly used anti-tumour agents whose mode of action involve tubulin binding.

The next data set deals with Sprague Dawley rats. Format: in vivo. The following applies: rat, in vivo, 9 mg/kg. On the procedure:
Taxol™ commonly causes dose dependent peripheral neuropathies during cancer treatment. […] All of the Taxol™ treated animals developed peripheral neuropathies, characterized by ‘tip toe walking’. The extent of this neuropathy was analyzed by quantifying the refracted light captured by a video camera as the animals walked over a glass plate.
Adult Sprague Dawley rats were treated with Taxol™ (IP, 9 mg/kg in Cremophor EL and ethanol) twice weekly for 3 weeks (J. Neuro-Oncology (1999) 41: 107-116). Compound was administered I hour prior to Taxol™ treatment (IP, 1, 5 and 10 mg/kg in hydroxypropyl-β-cyclodextrin). Taxol™ treated control animals were treated with saline solution at the same time of Compound treated animals. Non-treated control animals were treated with saline solution as above. Weight gain was measured every second day, starting at Day 1. Gait analysis was measured by quantifying the refracted light captured by a video camera as the animals walked over a glass plate, 2 days after the final Taxol™ treatment (Physiology and Behavior (1994), 55(4): 723-726; Med. Sci. Res. (1988) 16: 901-902). […] H/M wave recovery was analyzed using standard procedures 2 days after the final Taxol™ treatment (Muscle Nerve (1998) 21: 1405-1413; Annals of Neurology (1998) 43 (1): 46-55).
Male Spraugue Dawley rats were treated with 50% HPDC vehicle (veh/veh), compound I dissolved in 50% HPDC at 1, 5, or 10 mg/kg (veh/1, veh/5, veh/10, respectively), or Taxol™ (9 mg/kg)+compound 1 dissolved in 50% HPDC at 1, 5, and 10 mg/kg (Tax/1, Tax/5, Tax/10) according to the dosing regime described in Example 160. Weight measurements were made ever other day.
Two days after the completion of drug treatments animal walking gait was analyzed according to a) total imprint area, and b) total number of contact points.
FIG. 6 illustrates the effect of Compound 1 on H-reflex amplitude, a measurement of H/M wave disturbance induced by Taxol™. Two days after the completion of drug treatments, the dorsal root ganglia and attached nerves were dissected bilaterally from L4 and L5 and their H/M wave conductance measured.

In data set [2] the test system is SCG neurons. The data set can be described thus: cells. It counts as cell-based, Sprague Dawley rats. The settings on record: Rattus norvegicus, Neuron; Taxol™ (50 ng/mL), viability 48 hours later, MTS; read-out: IC(50), protection of SCG neurons from Taxol killing.
Data set [3] relates to SCG neurons. The data set can be described thus: Protection of SCG neurons from anti-NGF killing. It counts as cell-based, Sprague Dawley rats. The settings on record: Rattus norvegicus, Neuron; anti-NGF antibody, serum and NGF free 48 hours, Alamar Blue; +/−1 uM; read-out: IC(50), rescue from anti-NGF killing of SCG neurons. How it is done:
Neurotrophins are critical to the growth, development, and survival of small fiber neurons of the PNS. SCG neurons are neurons of the PNS that undergo apoptosis upon NGF withdrawal. In a typical experiment SCG neurons are cultured in the presence of NGF, which induces survival and neurite out-growth. After 5 days the NGF is removed by either the addition of anti-NGF polyclonal antibody (Sigma) or by repeated washings (4 times) with NGF free media, resulting in the apoptosis of up to 90% of the neurons after 48 hours, as measured by MTS staining.
After 4 days the cells were treated with anti-NGF antibody (Sigma). At this time compound was added and the cells were maintained serum and NGF free for 48 hours, at which time viability was assessed using Alamar Blue (Medicorp) staining.
(Alamar Blue is a resazurin reagent that responds to reducing activity.)

In the next data set the target is CA II (Homo sapiens, UniProt P00918). The data set can be described thus: CA II inhibition. It counts as biochemical. The settings on record: read-out: IC(50), CA II inhibition. On the procedure: CA II inhabition was measured using the protocol described by Pocker, Y.'Stone, J. Biochemistry 1967, 6, 668.
Another data set relates to cortical neurons. Kind of data set: Neuroprotection of cortical neurons in the presence of beta-amyloid. It counts as cell-based, Sprague Dawley rats. The settings on record: 10 uM compound, 10 uM 25-35 amyloid beta peptide, 48 hour. On the procedure: Primary neuronal/glial cortical cultures were established from postnatal day 1 Sprague Dawley rats. Cerbral cortices were isolated and dissociated with 0.25% trypsin for 20 minutes at 37 degrees. The tissue was then triturated in PBS containing 0.1% bovine serum albumin and 0.2 mg/ml DNAse. Cells were plated in poly D-lysine coated 96 well plates at a density of 1e6 cells per mL. Cultures were maintained at 37 degrees in 5% C02/95% air for 2 weeks in Neurobasal (Gibco) supplemented with B27, glutamine, and penicillin/streptomycin. 5ng/mL AraC was added after 48 hours. After 2 weeks cells were exposed to 10 uM 25-35 amyloid beta peptide with and without 10 uM compound 76. After 2 days of treatment apoptotic cells were detected with Cy3-conjugated annexin V (Sigma).

The test system of another data set is sciatic nerve. The data set can be described thus: Sciatic nerve crush injury model. Format: in vivo, Sprague Dawley rats. The following applies: for functional recovery after sciatic nerve crush: 1 and 10 mg/kg. An excerpt: The sciatic nerve crush model is a representative model of axonal repair and regeneration. The sciatic nerve is physically crushed with forceps at the mid-thigh; only the right leg is injured, the left leg serving as a control. The axons die from the crush point to their point of innervation. Functional loss of the axons is rapidly observed as the animals drag their right leg and the toes of the right leg no longer spread. Recovery is observed in approximately 28 days as the animals regain use of their right leg. More quantitative measurements of recovery include toe spread measurements between the digits 1 and 5 and digits 2 and 4, gait analysis and electrical conductivity from the toes to the injury site (see Example 161). Male Sprague Dawley rats were anaesthetized (halothane and buprenorphine) and the right hind leg was blunt dissected to expose the sciatic nerve at mid-thigh. The nerve was crushed twice for a total of 30 seconds using No.7 Dumont jeweller's forceps. The incision is sutured and the animals are allowed to recover for 28 days. Functional recovery was measured by gait, nerve conductance and toe spread measurements between digits 1 and 5 and digits 2 and 4.

The values below come from patent US7772260B2, “Imidazo[2,1-b]-1,3,4-thiadiazole sulfonamides” (Aegera Therapeutics Inc., priority 2001, dated 2010).

pIC50: −log10 of the molar value. Entries after “also recorded” stand apart in the source; their conditions may differ.

In the case of `CC[C@]1(O)C[C@H]2CN(CCc3c([nH]c4ccccc34)[C@@](C(=O)OC)(c3cc4c(cc3OC)N(C=O)[C@H]3[C@@](O)(C(=O)OC)[C@H](OC(C)=O)[C@]5(CC)C=CCN6CC[C@]43[C@@H]65)C2)C1` [vincristine, reference compound], the “apoptosis of cultured SCG neurons” value with SCG neurons [1] is reported as at least 80%.
Turning to `CC(=O)O[C@H]1C(=O)[C@@]2(C)[C@H]([C@H](OC(=O)c3ccccc3)[C@]3(O)C[C@H](OC(=O)[C@H](O)[C@@H](NC(=O)c4ccccc4)c4ccccc4)C(C)=C1C3(C)C)[C@]1(OC(C)=O)CO[C@@H]1C[C@@H]2O` [Taxol™, reference compound], in the data set on Sprague Dawley rats, the “reduction in foot-pad contact as compared to control animals” value stood at 46% and the “weight gain over a thirteen day period” value was “no weight gain”.
As to `COc1cccc(-c2ccc(-c3cn4nc(S(N)(=O)=O)sc4n3)cc2)c1` [Compound 76, 6-(4-(3-methoxyphenyl)phenyl)imidazo[2,1-b]-1,3,4-thiadiazole-2-sulfonamide], the pIC50 is 5.70 in the data set on SCG neurons [2], 5.30 in the data set with SCG neurons [3] and 6.28 on CA II. The “annexin V positive (apoptotic) cells” value in the data set with cortical neurons was “prevents the occurrence of annex in V stained cells; also recorded: prevented the appearance of annexinV positive cells”. Besides, in the data set on sciatic nerve, the “functional recovery after sciatic nerve crush” value is recorded as “improved recovery”. Moreover, the “recovery in toe spread area (inner toe spread)” value with sciatic nerve (versus vehicle control) was “induced increased recovery”.
As to `NS(=O)(=O)c1nn2cc(-c3ccc(-c4ccc(C(F)(F)F)cc4)cc3)nc2s1` [Compound 82, 6-(4-(4-trifluoromethylphenyl)phenyl)imidazo[2,1-b]-1,3,4-thiadiazole-2-sulfonamide], the pIC50 with SCG neurons [2] is 5.70; in the data set on SCG neurons [3], 4.60; on CA II, 5.27.
In the case of `NS(=O)(=O)c1nn2cc(-c3cc4ccccc4o3)nc2s1` [Compound 111, 6-(Benzo[b]furan-2-yl)imidazo[2,1-b]-1,3,4-thiadiazole-2-sulfonamide], the values for the pIC50 with SCG neurons [2], in the data set on SCG neurons [3] and on CA II were 5.70, 5.15 and 4.27, respectively. The “functional recovery after sciatic nerve crush” value with sciatic nerve is recorded as “improved recovery”.
Take `NS(=O)(=O)c1nn2cc(-c3ccc(Oc4ccc([N+](=O)[O-])cc4)cc3)nc2s1` [Compound 99, 6-(4-(4-nitrophenoxy)phenyl)imidazo[2,1-b]-1,3,4-thiadiazole-2-sulfonamide]: the pIC50 in the data set on SCG neurons [2] was 5.70; in the data set with SCG neurons [3], 5.15; on CA II, 6.04.
Consider `COc1ccccc1-c1ccc(-c2cn3nc(S(N)(=O)=O)sc3n2)cc1` [Compound 75, 6-(4-(2-methoxyphenyl)phenyl)imidazo[2,1-b]-1,3,4-thiadiazole-2-sulfonamide], for which the figures for the pIC50 in the data set with SCG neurons [2], with SCG neurons [3] and on CA II were 5.30, 5.00 and 6.36, respectively.
Take `NS(=O)(=O)c1nn2cc(-c3ccc(Oc4ccccc4)cc3)nc2s1` [Compound 87, 6-(4-phenoxyphenyl)imidazo[2,1-b]-1,3,4-thiadiazole-2-sulfonamide]: the pIC50 in the data set with SCG neurons [2] is 5.30; in the data set with SCG neurons [3], 5.00; at CA II, 6.89.
